Consider 3 compounds from publication PMC2362691, “A phase I study of the lipophilic thymidylate synthase inhibitor Thymitaq™ (nolatrexed dihydrochloride) given by 10-day oral administration” (British Journal of Cancer, 1999).

Where “and” joins values, the source holds several entries; their conditions need not be identical. Identical values can stand only once. Like-named read-outs stand apart in the source and are kept apart here.

On the set-up of data set [1]: method as in earlier work. The note with it: clinical trial, ref Calvert et al, 1986, 1987, Bassendine et al, Cantwell et al, 1988; cited from earlier work.
Details of data set [2]: method as in Rafi et al, 1996. The following applies: patients, 5-day oral administration; ref Rafi et al, 1996; cited from earlier work.
The test system of another data set is thymidylate synthase. Briefly: Plasma deoxyuridine (dUrd) concentrations, pretreatment vs day 10. Format: in vivo, cancer patients.
For data set [3] the following is noted: cited from earlier work.
Data set [4] can be described thus: Phase I study of 10-day oral nolatrexed (6 hourly, every 21 days): toxicity by CTC grade. The note with it: 6 hourly for 10 days, repeated at 3-weekly intervals (143 mg m-2 every 6 h).
On the set-up of data set [5]: method as in Rafi et al, 1995. The following applies: continuous 24-h infusion, ref Rafi et al, 1995, cited from earlier work.
For data set [6] the following is noted: cited from earlier work. The source holds these as a separate data set.
For data set [7] the following is noted: rats fasted before treatment, introduction, no reference given, cited from earlier work.
The conditions of data set [8]: no reference given, cited from earlier work; for bioavailability of proposed clinical formulation: capsules with microcrystalline cellulose and crospovidone, dosing preceded and followed by water gavage.
The conditions of data set [9]: in vivo.
On the set-up of data set [10]: method as in Jodrell et al, 1991. The following applies: ref Jodrell et al, 1991; cited from earlier work.
Setting [11] is: 5-day intravenous infusion, ref Rafi et al, 1998.
[12] abbreviates: 10-day intravenous infusion, 716 mg m-2 day-1, ref Creaven et al (1998).

On to `C#CCN(Cc1ccc2nc(N)[nH]c(=O)c2c1)c1ccc(C(=O)N[C@@H](CCC(=O)O)C(=O)O)cc1` [CB 3717, N10-propargyl-5,8-dideazafolic acid], for which, in data set [1], the “toxicity that led to abandoned development” value is “sporadic and unpredictable nephrotoxicity and myelotoxicity”.
A word on the bioavailability: it is dose-corrected exposure relative to a reference, in per cent. Regarding `Cc1ccc2nc(N)[nH]c(=O)c2c1Sc1ccncc1.Cl.Cl` [nolatrexed, 2-Amino-3,4-dihydro-6-methyl-4-oxo-5-(4-pyridylthio)-quinazoline dihydrochloride], the oral bioavailability in [2] was 70–100%. Also, in the data set on thymidylate synthase (429 mg m-2 day-1, in three out of four patients with data), the “elevation in plasma dUrd compared with baseline” value is reported as over 75%. In addition, the “rise of plasma dUrd concentration, median” value in the data set with thymidylate synthase (day 10 vs pretreatment, 12 out of 23 patients, all dose levels) is recorded as 90 % of baseline. Moreover, the “duration of partial response” value in data set [3] (5-day intravenous infusion, one patient with metastatic colorectal cancer, ref Rafi et al, 1998) is given as 3 months. Moreover, in [3] (setting [11]), the dose-limiting toxicity entry was “neutropenia”, the maximum tolerated dose is 904 mg m-2 day-1 and the “recommended phase II dose” value was 800 mg m-2 day-1. Further, in data set [3] (supported by median trough values of this study, ref Rafi et al (1998)), the clearance result was “dose dependent”. The maximum tolerated dose in [4] stood at 572 mg m-2 day-1. The “patients who achieved disease stabilization” value (human, in vivo) was “three”. Further, under “ten out of 23 patients had evaluable disease”, the “patients with progressive disease on treatment” value is “seven”. Also, in [5] (maximum dose administered 1073 mg m-2), the systemic toxicity entry is “no systemic toxicity”. Besides, the “local toxicity (phlebitis), CTC grade” value in data set [5] is reported as 2 CTC grade. In [6] (setting [12]), the “patients who completed the dose level” value is given as “zero out of three” and the “patients with grade 4 myelosuppression” value is “two out of three”. Further, the “patients with dose-limiting myelosupression” value in data set [6] (in vivo, iv) is reported as “one out of four”. For the same compound, in data set [7] (20 mg kg-1 (120 mg m-2)), the oral bioavailability was 53%. For the same compound, the oral bioavailability in [7] (40 mg kg-1 (240 mg m-2)) is given as 50%. Further, the oral bioavailability in data set [7] (80 mg kg-1 (480 mg m-2)) is listed as 30%. Also, the “bioavailability of proposed clinical formulation” value in data set [8] (one dog) was 70% and 107%. Moreover, in [8] (second dog), the “bioavailability of proposed clinical formulation” value was 87%. Also, in data set [8] (dogs fasted overnight, in 5% dextrose by gavage, introduction), the bioavailability is over 90%. In addition, the “dose level that could be considered for phase II testing” value in data set [9] (human, 10 days) is given as 429 mg m-2 day-1. Besides, the “doses at which thrombocytopenia (grade 1 or 2) occurred” value in data set [9] (human, po, 10 days) is at least 318 mg m^−2day^−1. Besides, in [9], the “additional patients with increased sensitivity to sunlight, no apparent rash” value is on record as “five”; the “patients with elevation of serum bilirubin” value was “nine”; the “patients with skin rash” value was “eight”.
On to `Cc1nc2ccc(CN(C)c3ccc(C(=O)N[C@@H](CCC(=O)O)C(=O)O)s3)cc2c(=O)[nH]1` [raltitrexed], for which, in data set [10], the nephrotoxicity entry is “non-nephrotoxic”.
